Assay results from the supplement of paper PMC10331698.
± gives the standard deviation of the averaged measurements.

How the values were obtained:
Assay in all cases: level (log10 ratio to DMSO vehicle control); higher = higher biomarker level / cell amount than vehicle control
[1] = compound: O=C(O)C(F)(F)C(F)(F)C(F)(F)OC(F)(F)F [Perfluoro(4-methoxybutanoic) acid] (in DMSO)
Description: (§1)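 BioMAP Diversity Plus panel of 12 human primary cell co-culture systems (3C, 4H, LPS, SAg, BT, BF4T, BE3C, CASM3C, HDF3CGF, KF3CT, MyoF, Mphg). Compounds were added 1 h before stimulation and left for 24 h (MyoF 48 h; BT 72 h for soluble read-outs or 6 d for IgG). Biomarkers were read by ELISA, cytotoxicity by SRB, PBMC viability and proliferation by Alamar Blue. Each well value was divided by the mean of 8 DMSO control wells on the same plate and log10 transformed; duplicate blinded samples were tested at 4 concentrations.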

[2] = compound: O=C(O)C=C(C(F)(F)F)C(F)(F)F [3,3-Bis(trifluoromethyl)-2-propenoic acid] (in DMSO)
Description: as §1

[3] = compound: O=C(O)C(F)(OC(F)(F)C(F)(F)C(F)(F)F)C(F)(F)F [Ammonium perfluoro-2-methyl-3-oxahexanoate] (in Water)
Description: as §1

[4] = compound: O=C(O)C(F)(F)C(F)(F)C(F)(F)C(F)(F)C(F)(F)C(F)(F)C(F)(F)C(F)(F)C(F)(F)C(F)(F)F [Perfluoroundecanoic acid] (in DMSO); details: 6700 nM
Description: as §1

[5] = compound: OCC(F)(F)C(F)(F)C(F)(F)C(F)(F)C(F)(F)C(F)(F)CO [1H,1H,8H,8H-Perfluorooctane-1,8-diol] (in DMSO)
Description: as §1

[6] = compound: O=S(=O)(O)C(F)(F)C(F)(F)C(F)(F)C(F)(F)C(F)(F)C(F)(F)C(F)(F)F [Perfluoroheptanesulfonic acid] (in DMSO)
Description: as §1

[7] = compound: O=S(=O)(O)C(F)(F)C(F)(F)OC(F)(F)C(F)(F)F [Perfluoro(2-ethoxyethane)sulfonic acid] (in DMSO)
Description: as §1

Test System	level (log10) ([1]; 6700 nM)	level (log10) ([1]; 20000 nM)	level (log10) ([1]; 60000 nM)	level (log10) ([2]; 6700 nM)	level (log10) ([2]; 20000 nM)	level (log10) ([2]; 60000 nM)	level (log10) ([3]; 6700 nM)	level (log10) ([3]; 20000 nM)	level (log10) ([3]; 60000 nM)	level (log10) [4]	level (log10) ([5]; 6700 nM)	level (log10) ([5]; 20000 nM)	level (log10) ([5]; 60000 nM)	level (log10) ([6]; 1500 nM)	level (log10) ([6]; 4400 nM)	level (log10) ([6]; 13000 nM)	level (log10) ([6]; 40000 nM)	level (log10) ([7]; 6700 nM)	level (log10) ([7]; 20000 nM)	level (log10) ([7]; 60000 nM)
BE3C:CD87/uPAR	0.0145 ± 0.011	-0.0195 ± 0.019	0.002 ± 0.0099	-0.0365 ± 0.025	-0.0635 ± 0.013	-0.012 ± 0.013	0.011 ± 0.034	0.0215 ± 0.0078	0.027 ± 0.0085	0.138 ± 0.019	-0.002 ± 0.0085	0.026 ± 0.0085	-0.0195 ± 0.00071	0.017 ± 0.024	-0.0045 ± 0.015	-0.0065 ± 0.03	0.05 ± 0.069	-0.014 ± 0.035	0.012 ± 0.014	0.0075 ± 0.0021
BE3C:CXCL8/IL-8	0.0325 ± 0.028	0.0325 ± 0.016	0.0655 ± 0.042	-0.016 ± 0.0042	-0.026 ± 0.0085	-0.0075 ± 0.04	-0.013 ± 0.071	0.0005 ± 0.011	0.0195 ± 0.011	-0.113	-0.021 ± 0.027	-0.0325 ± 0.023	-0.0245 ± 0.066	0.0105 ± 0.018	0.02 ± 0.0099	0.0405 ± 0.019	0.0595 ± 0.057	0.0135 ± 0.016	0.008 ± 0.038	0.04 ± 0.0028
BE3C:CXCL9/MIG	0.0005 ± 0.013	-0.006 ± 0.016	-0.0005 ± 0.00071	-0.007 ± 0.014	-0.007 ± 0.0057	0.005 ± 0.023	0.0065 ± 0.013	0.0045 ± 0.005	0 ± 0.0042	-0.0125 ± 0.0064	0.004 ± 0.0085	0 ± 0.016	-0.006 ± 0.0071	-0.011 ± 0.02	-0.009 ± 0.025	-0.006 ± 0.013	-0.006 ± 0.016	0.002 ± 0.0042	-0.0145 ± 0.012	-0.0055 ± 0.0035
BE3C:CXCL10/IP-10	-0.0045 ± 0.0078	-0.001 ± 0.0085	0.0045 ± 0.0035	-0.022 ± 0.027	-0.0195 ± 0.026	-0.0295 ± 0.00071	-0.0095 ± 0.013	-0.001 ± 0.0042	0.0115 ± 0.0092	-0.4655 ± 0.0021	0.003 ± 0.013	-0.006 ± 0.0014	-0.018 ± 0.0028	0.0075 ± 0.0035	0.0055 ± 0.0078	-0.01 ± 0.024	-0.039 ± 0.016	-0.008 ± 0.02	-0.024 ± 0.033	-0.01 ± 0.0071
BE3C:CXCL11/I-TAC	0.011 ± 0.018	0.008 ± 0.0085	0.0135 ± 0.0092	-0.0375 ± 0.0092	-0.033 ± 0.023	-0.019 ± 0.011	-0.011 ± 0.0057	0.0115 ± 0.0021	-0.0045 ± 0.0078	-0.114 ± 0.047	-0.006 ± 0.0085	-0.0045 ± 0.026	-0.0165 ± 0.0064	-0.0095 ± 0.069	0.021 ± 0.038	0.0255 ± 0.011	0.0495 ± 0.025	0.032 ± 0.0057	0.076 ± 0.0042	0.073 ± 0.0042
BE3C:EGFR	0.016 ± 0.0071	0.0035 ± 0.015	0.009 ± 0.016	-0.015 ± 0.014	-0.011 ± 0.0085	-0.0015 ± 0.012	-0.016 ± 0.023	-0.009 ± 0.0085	0.005 ± 0.0057	-0.064 ± 0.0014	-0.019 ± 0.024	-0.01 ± 0.017	-0.0315 ± 0.005	0.019 ± 0.025	-0.008 ± 0.0042	-0.002 ± 0.023	-0.012 ± 0.038	0 ± 0.0014	-0.019 ± 0.017	-0.004
BE3C:HLA-DR	-0.0005 ± 0.019	0.007 ± 0.0071	0.021 ± 0.021	-0.0175 ± 0.0064	-0.0245 ± 0.011	-0.0355 ± 0.016	-0.022 ± 0.013	-0.0015 ± 0.018	-0.0265 ± 0.0021	-0.0815 ± 0.022	0.009	-0.0245 ± 0.0064	-0.039 ± 0.014	0.01 ± 0.014	-0.013 ± 0.016	-0.01 ± 0.021	-0.028 ± 0.033	-0.0085 ± 0.033	-0.012 ± 0.014	-0.0335 ± 0.0092
BE3C:IL-1alpha	-0.0045 ± 0.037	0.014 ± 0.0042	0.0245 ± 0.0021	0.012 ± 0.02	0.0005 ± 0.0092	0.001 ± 0.023	-0.0215 ± 0.013	-0.001 ± 0.0028	-0.0085 ± 0.005	-0.069 ± 0.0042	0.002 ± 0.0042	0.0015 ± 0.0064	0.0055 ± 0.029	0.0275 ± 0.005	0.006	0.001 ± 0.0099	0.039 ± 0.03	0.0015 ± 0.0021	0.0045 ± 0.0035	0.0085 ± 0.005
BF4T:CCL2/MCP-1	0.031 ± 0.031	0.007 ± 0.054	0.035 ± 0.028	0.0005 ± 0.0021	-0.052 ± 0.031	-0.0635 ± 0.0064	0.007 ± 0.031	0.005 ± 0.048	0.0285 ± 0.021	-0.009 ± 0.023	-0.0075 ± 0.0064	-0.017 ± 0.0014	-0.009 ± 0.024	0.009 ± 0.041	0 ± 0.013	-0.092 ± 0.028	0.016 ± 0.014	0.0155 ± 0.0064	0.0155 ± 0.0064	0.0315 ± 0.039
BF4T:CCL26/Eotaxin-3	0.0195 ± 0.06	0.0005 ± 0.0035	0.0065 ± 0.0021	-0.089 ± 0.03	-0.124 ± 0.0014	-0.126 ± 0.067	-0.128 ± 0.03	-0.0995 ± 0.06	-0.137 ± 0.03	-0.212 ± 0.014	0.004 ± 0.0057	-0.009 ± 0.033	-0.019 ± 0.018	0.053 ± 0.05	0.01	-0.0715 ± 0.011	-0.069 ± 0.058	0.019 ± 0.0014	-0.0075 ± 0.00071	0.039 ± 0.038
BF4T:CD54/ICAM-1	-0.005 ± 0.024	-0.013 ± 0.027	-0.0005 ± 0.0035	-0.0195 ± 0.005	-0.0205 ± 0.005	-0.0075 ± 0.013	-0.0155 ± 0.012	-0.0265 ± 0.016	-0.0075 ± 0.0021	-0.0175 ± 0.026	-0.0275 ± 0.0092	-0.015 ± 0.013	-0.029 ± 0.017	0.009 ± 0.011	0.004 ± 0.017	-0.0155 ± 0.0035	0.0125 ± 0.016	-0.003 ± 0.0028	-0.0125 ± 0.0064	-0.008 ± 0.017
BF4T:CD90	-0.009 ± 0.011	-0.006 ± 0.0099	0 ± 0.0028	-0.0205 ± 0.011	-0.022 ± 0.0042	-0.0235 ± 0.019	-0.0065 ± 0.011	-0.015 ± 0.011	-0.007 ± 0.024	-0.016 ± 0.0028	-0.011 ± 0.023	-0.005 ± 0.028	-0.014 ± 0.018	-0.004 ± 0.0014	-0.004	-0.027 ± 0.0085	-0.0205 ± 0.013	-0.01 ± 0.0085	-0.0185 ± 0.0092	-0.0185 ± 0.0021
BF4T:CD106/VCAM-1	-0.005 ± 0.023	-0.012 ± 0.0071	-0.0015 ± 0.04	-0.0755 ± 0.0064	-0.0945 ± 0.005	-0.047 ± 0.067	-0.0735 ± 0.039	-0.018 ± 0.0085	-0.008 ± 0.0014	-0.032 ± 0.041	-0.006 ± 0.014	0.001 ± 0.0014	-0.006 ± 0.0057	0.017 ± 0.024	0.001 ± 0.0042	-0.0765 ± 0.0064	-0.094 ± 0.0099	0.003 ± 0.0057	0.0045 ± 0.028	0.021 ± 0.055
BF4T:CXCL8/IL-8	0.04 ± 0.069	0.014 ± 0.086	0.0245 ± 0.028	-0.0135 ± 0.022	-0.022 ± 0.0099	0.0345 ± 0.05	-0.0135 ± 0.036	0.0295 ± 0.028	0.0255 ± 0.03	0.0815 ± 0.026	-0.003 ± 0.0042	-0.0095 ± 0.0064	0.001 ± 0.0071	0.015 ± 0.014	0.006 ± 0.0014	0.049 ± 0.0014	0.121 ± 0.02	0.008 ± 0.0099	0.005 ± 0.024	0.0365 ± 0.011
BF4T:IL-1alpha	0.007 ± 0.013	0.008 ± 0.028	-0.003 ± 0.023	-0.009 ± 0.0057	-0.003 ± 0.0085	-0.0065 ± 0.035	0.018 ± 0.03	0.0055 ± 0.036	-0.0085 ± 0.021	-0.014 ± 0.023	-0.0105 ± 0.011	-0.0135 ± 0.013	0.0145 ± 0.029	0.0205 ± 0.025	0.0055 ± 0.005	0.01 ± 0.0014	0.0205 ± 0.016	-0.0065 ± 0.0078	-0.016 ± 0.0071	0.0165 ± 0.0092
